Source: patent EP1044015B1, “FORMULATIONS FOR AMYLIN AGONIST PEPTIDES WITH INSULIN” (AMYLIN PHARMACEUTICALS, INC., priority 1998, dated 2008)

Assay: Adsorption onto glass container
Type: physicochemical
Conditions: liquid form
Source text: However, with regard to amylin agonists or amylins which do have such a tendency, a surfactant should be used in their formulation which formulations should then be lyophilized. Surfactants frequently cause denaturation of protein, both of hydrophobic disruption and by salt bridge separation. Relatively low concentrations of surfactant exert a potent denaturing activity, because of the strong interactions between surfactant moieties and the reactive sites on proteins. However, judicious use of this interaction can stabilize proteins against interfacial or surface denaturation. Surfactants which could further stabilize the peptide may optionally be present in the range of about 0.001 to 0.3% (w/v) of the total formulation and include polysorbate 80 (i.e., polyoxyethylene(20) sorbitan monooleate), CHAPS° (i.e., 3-[(3-cholamidopropyl) dimethylammonio] 1-propanesulfonate), Brij° (e.g., Brij 35, which is (polyoxyethylene (23) lauryl ether), poloxamer, or another non-ionic surfactant.

## ^25,28,29Pro-h- amylin [Pramlintide]
  tendency to adsorb onto the glass: does not have a tendency to adsorb onto the glass
